The source of these data is patent US8895602B1, “6-pyrazolylamido-3-substituted azabicyclo[3.1.0]hexane compounds as calcium channel inhibitors” (Korea Institute of Science and Technology, priority 2013, dated 2014).

Structures are written as SMILES.

One may read the inhibition as the change of the read-out against control, counted positive when it falls.

In assay [1] the test system is human liver carcinoma (HepG2) cells. Nature of the assay: Anticancer screening, SRB assay, HepG2. In kind it is cell-based. The settings on record: HepG2, 48 hours incubation, concentration not given. Here is the method: (§1) Anticancer Effect Screening Test
(§2) All the cancer cells are human-derived tumor cells and were acquired from the Korean Cell Line Bank.
(§3) 2) Measurement of Anticancer Activity
(§4) After incubation in a CO2 incubator for 24 hours, the culture medium was removed and 100 μL of the test compound which was diluted 4-fold was added. After incubation for 48 hours, the cells were fixed by adding 100 μL of formalin solution. Then, the cells were washed 5 times with distilled water and dried at room temperature. After adding 100 μL of 0.4% SRB solution and keeping at room temperature for 30 minutes, the cells were washed 5 times with 1% acetic acid and dried at room temperature.
(§5) To evaluate the anticancer activity of the test compound against the cancer cells, the GI50 value was calculated according to Equation 1 or 2. Anticancer activity (%)=[…] Equation 1
(§6) In Equation 1, T0 represents the number of cells before adding the test compound and T2 represents the number of cells after adding the test compound and incubating for 48 hours. Anticancer activity (%)=[…] Equation 2
(§7) The inhibition of cancer cell growth by the test compound (% inhibition) was determined by data regression using the Lotus program from the values calculated according to Equation 1 and the IC50 value was calculated from the % inhibition.

Assay [2] deals with human prostate carcinoma (LNCaP) cells. In words: Anticancer screening, SRB assay, LNCaP. The settings on record: 48 hours incubation, concentration not given. The assay is classed as cell-based. Here is the method: as §1, §2, §3, §4, §5, §6, §7
On the technique in general: In SRB staining, fixed cells bind dye roughly in proportion to their protein.

The test system of assay [3] is human glioma (U87-MG) cells. Nature of the assay: Anticancer screening, SRB assay, U87-MG. The assay is classed as cell-based. The settings on record: 48 hours incubation, concentration not given. Here is the method:
as §1, §2, §3, §4, §5, §6, §7

The test system of assay [4] is human fibroblastoma (HT-1080) cells. In words: Anticancer screening, SRB assay, HT-1080. In kind it is cell-based. The settings on record: HT1080, 48 hours incubation, concentration not given. The protocol:
as §1, §2, §3, §4, §5, §6, §7

Assay [5] relates to human esophageal carcinoma (KYSE410) cells. Nature of the assay: Anticancer screening, SRB assay, KYSE410. The assay is classed as cell-based. The settings on record: KYSE410, 48 hours incubation, concentration not given. The protocol:
as §1, §2, §3, §4, §5, §6, §7

For assay [6], the system named is human breast cancer (MCF-7) cells. Nature of the assay: Anticancer screening, SRB assay, MCF-7. In kind it is cell-based. The note with it: MCF-7, 48 hours incubation, concentration not given. Here is the method:
as §1, §2, §3, §4, §5, §6, §7

In assay [7] the test system is human lung carcinoma (A-549) cells. In words: Anticancer screening, SRB assay, A-549. In kind it is cell-based. The note with it: A 549, 48 hours incubation, concentration not given. Here is the method: as §1, §2, §3, §4, §5, §6, §7
In assay [8] the target is α1H T-type calcium channel (Homo sapiens, UniProt O95180). Nature of the assay: Antagonistic activity against T-type calcium channel, α1H. In kind it is cell-based.
Sequence of α1H T-type calcium channel (O95180 whole entry): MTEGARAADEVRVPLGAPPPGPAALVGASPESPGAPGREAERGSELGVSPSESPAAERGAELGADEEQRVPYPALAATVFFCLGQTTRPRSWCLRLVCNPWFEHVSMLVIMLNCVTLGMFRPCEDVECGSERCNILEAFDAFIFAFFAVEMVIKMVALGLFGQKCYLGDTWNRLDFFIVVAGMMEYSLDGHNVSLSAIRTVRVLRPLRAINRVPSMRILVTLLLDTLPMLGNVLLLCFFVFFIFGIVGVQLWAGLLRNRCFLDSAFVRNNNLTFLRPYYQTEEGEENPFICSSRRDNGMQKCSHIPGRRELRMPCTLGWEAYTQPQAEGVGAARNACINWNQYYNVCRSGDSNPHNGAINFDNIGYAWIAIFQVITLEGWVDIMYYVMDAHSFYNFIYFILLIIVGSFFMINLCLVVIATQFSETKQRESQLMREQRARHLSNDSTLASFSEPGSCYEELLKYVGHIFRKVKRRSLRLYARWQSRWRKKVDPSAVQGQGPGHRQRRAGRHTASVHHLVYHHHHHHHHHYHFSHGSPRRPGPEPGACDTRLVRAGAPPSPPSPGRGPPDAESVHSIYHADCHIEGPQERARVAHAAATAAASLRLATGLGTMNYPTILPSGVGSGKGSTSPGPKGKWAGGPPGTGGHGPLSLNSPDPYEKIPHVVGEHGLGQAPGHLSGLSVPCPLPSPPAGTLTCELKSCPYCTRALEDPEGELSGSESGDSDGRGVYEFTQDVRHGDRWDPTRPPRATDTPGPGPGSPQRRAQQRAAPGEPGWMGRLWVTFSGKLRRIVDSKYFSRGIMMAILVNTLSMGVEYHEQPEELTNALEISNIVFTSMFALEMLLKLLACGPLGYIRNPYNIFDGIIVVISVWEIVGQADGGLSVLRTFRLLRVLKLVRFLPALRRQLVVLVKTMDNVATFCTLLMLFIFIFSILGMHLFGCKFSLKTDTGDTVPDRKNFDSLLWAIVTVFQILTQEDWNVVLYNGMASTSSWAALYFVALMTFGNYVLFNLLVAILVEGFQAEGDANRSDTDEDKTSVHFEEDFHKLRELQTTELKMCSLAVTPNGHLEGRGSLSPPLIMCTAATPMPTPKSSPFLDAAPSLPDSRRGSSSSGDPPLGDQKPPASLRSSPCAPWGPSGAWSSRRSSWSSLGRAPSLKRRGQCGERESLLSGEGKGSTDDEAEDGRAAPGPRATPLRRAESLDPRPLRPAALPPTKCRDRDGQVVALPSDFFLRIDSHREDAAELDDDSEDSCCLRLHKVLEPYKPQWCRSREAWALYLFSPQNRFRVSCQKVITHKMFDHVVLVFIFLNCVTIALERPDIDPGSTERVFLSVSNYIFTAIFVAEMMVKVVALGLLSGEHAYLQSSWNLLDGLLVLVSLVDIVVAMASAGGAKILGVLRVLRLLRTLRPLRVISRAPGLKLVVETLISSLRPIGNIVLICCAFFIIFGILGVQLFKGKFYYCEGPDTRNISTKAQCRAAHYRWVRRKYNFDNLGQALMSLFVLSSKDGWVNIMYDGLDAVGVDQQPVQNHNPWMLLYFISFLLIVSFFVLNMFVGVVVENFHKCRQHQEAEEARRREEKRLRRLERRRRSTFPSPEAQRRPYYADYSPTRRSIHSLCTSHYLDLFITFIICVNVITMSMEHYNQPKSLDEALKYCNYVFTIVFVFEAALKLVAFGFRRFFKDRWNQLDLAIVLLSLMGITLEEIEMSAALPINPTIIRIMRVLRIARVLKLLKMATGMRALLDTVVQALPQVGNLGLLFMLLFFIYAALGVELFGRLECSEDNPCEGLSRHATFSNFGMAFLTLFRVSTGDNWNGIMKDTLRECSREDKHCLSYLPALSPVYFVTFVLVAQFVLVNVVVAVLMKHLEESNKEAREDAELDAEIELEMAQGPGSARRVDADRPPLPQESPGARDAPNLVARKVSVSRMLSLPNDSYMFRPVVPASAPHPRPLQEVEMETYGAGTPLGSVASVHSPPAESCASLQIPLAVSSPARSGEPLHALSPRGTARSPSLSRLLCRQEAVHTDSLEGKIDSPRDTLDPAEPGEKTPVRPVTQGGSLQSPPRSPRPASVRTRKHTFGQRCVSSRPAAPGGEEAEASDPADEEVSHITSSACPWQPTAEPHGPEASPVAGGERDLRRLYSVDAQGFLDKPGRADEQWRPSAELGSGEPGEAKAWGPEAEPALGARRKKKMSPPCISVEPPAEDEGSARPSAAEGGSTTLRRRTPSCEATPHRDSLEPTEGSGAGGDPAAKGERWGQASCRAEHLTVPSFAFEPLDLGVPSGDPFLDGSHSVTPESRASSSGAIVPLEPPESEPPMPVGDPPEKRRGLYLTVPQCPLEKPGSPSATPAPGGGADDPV
Experimental: (§8) Test of Antagonistic Activity Against T-Type Calcium Channel
2) Measurement of T-Type Calcium Channel Activity in HEK293 Cells by Whole-Cell Patch Clamp Electrophysiology
The culture medium was replaced with a fresh one every 3-4 days and the cells were subcultured every week. […] The T-type calcium channel current at single cell level was measured by whole-cell patch clamp electrophysiology using an EPC-9 amplifier (HEKA, Germany). For the T-type calcium channel activity measurement, an extracellular solution (140 mM NaCl, 2 mM CaCl2, 10 mM HEPES, pH 7.4) and an intracellular solution (130 mM KCl, 10 mM HEPES, 11 mM EGTA, 5 mM MgATP, pH 7.4) were used. […] Thereafter, the cell membrane potential was fixed to −100 mV and the inward current evoked by the T-type calcium channel activity was measured every 10 seconds at hypopolarization with −30 mV (50 ms duration). Each compound was dissolved in 100% dimethyl sulfoxide (DMSO) to make a 10 mM stock solution. […] More specifically, the cells were treated with each compound together with the extracellular solution for 30-60 seconds and the % inhibition was determined by calculating the inhibition of peak current induced by the compound.
Assay [9] addresses T1, α1G T-type calcium channel (Homo sapiens, UniProt O43497).
T1 construct: host or cells: HEK293
In words: Antagonistic activity against T-type calcium channel (FDSS6000 / whole-cell patch clamp in HEK293 cells), α1G. The assay is classed as cell-based. (In general: The patch-clamp technique gives a direct electrical read-out from membranes.)
Experimental: as §8
Then, as secondary screening, the effective inhibitory concentration IC50 for human HEK293 cells was obtained by measuring the potential of Ca^2+.
1) Measurement of T-Type Calcium Channel Activity Using FDSS6000
Subsequently, 10 minutes prior to the FDSS6000 measurement, the cells were washed with HEPES buffer containing 10 mM CaCl2 once and the final volume was adjusted to 81 μL. Separately from the 96-well plate with the cells, two 96-well drug plates were prepared, one containing KCl (final concentration 75 mM) for activating the T-type calcium channel and the other containing the blocking agent (test compound). […] For the FDSS6000 measurement, after baseline recording for 20 seconds, the cells were pretreated with the test compound for 75 seconds and the change in intracellular calcium concentration induced by KCl was measured. The % inhibition by the test compound was calculated as integrated values of the 340/380 ratio relative to the untreated control group. […]
For calcium imaging, the cells were selectively exposed to light of excitation wavelengths (340 nm and 380 nm) with four xenon lamps installed in the FDSS6000 device using a computer-controlled filter wheel. The emitted fluorescence light that passed through a 515 nm long-pass filter was passed through a freezing CCD camera mounted in the device. […]

For assay [10] the following is noted: spinal nerve ligation model; cited from earlier work.

T1 sequence (O43497 whole entry): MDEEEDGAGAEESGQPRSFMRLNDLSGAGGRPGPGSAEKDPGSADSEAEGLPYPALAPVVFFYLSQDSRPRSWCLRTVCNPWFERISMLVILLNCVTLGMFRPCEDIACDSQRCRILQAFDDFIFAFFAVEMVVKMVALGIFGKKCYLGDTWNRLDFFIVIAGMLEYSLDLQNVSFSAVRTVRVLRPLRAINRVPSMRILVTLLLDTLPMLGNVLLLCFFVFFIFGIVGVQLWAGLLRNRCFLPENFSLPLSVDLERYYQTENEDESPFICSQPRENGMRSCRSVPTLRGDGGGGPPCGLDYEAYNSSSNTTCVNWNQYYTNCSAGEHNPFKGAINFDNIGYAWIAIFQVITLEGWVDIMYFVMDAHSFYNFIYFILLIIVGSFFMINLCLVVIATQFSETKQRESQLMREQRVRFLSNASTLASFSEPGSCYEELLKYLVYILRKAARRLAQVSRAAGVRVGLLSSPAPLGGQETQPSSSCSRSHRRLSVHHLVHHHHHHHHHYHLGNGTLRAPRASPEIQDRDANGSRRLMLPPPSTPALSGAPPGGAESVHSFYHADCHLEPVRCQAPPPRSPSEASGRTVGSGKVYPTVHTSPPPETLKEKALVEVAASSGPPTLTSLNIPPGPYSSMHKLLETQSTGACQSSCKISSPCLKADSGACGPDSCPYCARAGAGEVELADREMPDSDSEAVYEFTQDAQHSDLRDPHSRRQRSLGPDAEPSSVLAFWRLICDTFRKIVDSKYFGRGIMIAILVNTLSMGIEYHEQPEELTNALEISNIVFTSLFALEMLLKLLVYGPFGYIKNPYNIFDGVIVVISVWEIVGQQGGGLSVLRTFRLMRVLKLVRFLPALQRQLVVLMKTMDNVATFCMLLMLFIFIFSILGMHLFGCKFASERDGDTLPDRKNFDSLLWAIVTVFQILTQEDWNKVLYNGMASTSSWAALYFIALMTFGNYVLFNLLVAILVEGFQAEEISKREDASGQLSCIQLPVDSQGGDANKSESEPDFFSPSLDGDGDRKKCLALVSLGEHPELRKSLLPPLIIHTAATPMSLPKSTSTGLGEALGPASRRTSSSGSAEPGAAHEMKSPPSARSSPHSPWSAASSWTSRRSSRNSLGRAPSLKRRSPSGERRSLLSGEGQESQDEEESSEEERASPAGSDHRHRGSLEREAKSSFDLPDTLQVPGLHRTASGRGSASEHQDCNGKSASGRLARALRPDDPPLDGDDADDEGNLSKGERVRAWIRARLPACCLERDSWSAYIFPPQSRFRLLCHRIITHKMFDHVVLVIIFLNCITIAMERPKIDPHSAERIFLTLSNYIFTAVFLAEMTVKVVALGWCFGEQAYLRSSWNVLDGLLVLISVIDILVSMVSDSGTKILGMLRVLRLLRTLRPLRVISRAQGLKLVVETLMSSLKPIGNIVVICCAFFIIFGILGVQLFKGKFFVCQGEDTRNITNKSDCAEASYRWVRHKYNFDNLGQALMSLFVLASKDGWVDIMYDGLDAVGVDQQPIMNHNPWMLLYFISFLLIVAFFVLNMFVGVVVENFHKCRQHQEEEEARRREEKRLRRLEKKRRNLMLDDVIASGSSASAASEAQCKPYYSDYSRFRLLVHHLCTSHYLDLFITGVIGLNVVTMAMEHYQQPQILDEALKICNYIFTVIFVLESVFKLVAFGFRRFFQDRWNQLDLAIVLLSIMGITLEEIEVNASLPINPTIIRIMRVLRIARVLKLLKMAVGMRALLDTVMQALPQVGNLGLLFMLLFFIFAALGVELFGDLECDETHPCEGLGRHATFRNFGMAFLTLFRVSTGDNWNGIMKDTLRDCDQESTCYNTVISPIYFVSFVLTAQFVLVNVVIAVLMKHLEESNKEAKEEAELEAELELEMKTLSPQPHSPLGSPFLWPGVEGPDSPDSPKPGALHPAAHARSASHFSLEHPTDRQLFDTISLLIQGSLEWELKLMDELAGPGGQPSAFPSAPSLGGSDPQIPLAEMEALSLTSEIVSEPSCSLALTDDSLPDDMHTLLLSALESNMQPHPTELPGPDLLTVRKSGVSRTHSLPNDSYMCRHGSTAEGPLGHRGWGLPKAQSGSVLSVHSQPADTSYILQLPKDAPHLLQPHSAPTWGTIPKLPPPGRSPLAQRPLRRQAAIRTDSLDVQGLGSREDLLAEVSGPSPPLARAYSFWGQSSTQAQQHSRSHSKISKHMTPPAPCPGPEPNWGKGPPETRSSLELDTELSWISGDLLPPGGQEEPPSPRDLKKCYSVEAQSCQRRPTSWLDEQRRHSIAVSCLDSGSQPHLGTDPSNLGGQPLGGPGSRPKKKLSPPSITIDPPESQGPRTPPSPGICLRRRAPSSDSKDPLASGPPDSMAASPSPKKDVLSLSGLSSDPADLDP

`CC(C)Cc1cc(CNC(=O)C2C3CN(CCC(C)(C)C)CC32)nn1-c1ccccc1` (centres unmarked) [Compound 1, 3-[3-(3,3-Dimethylbutyl)-3-azabicyclo[3.1.0]hexane-6-carboxamido]methyl-5-isobutyl-1-phenyl-1H-pyrazole]: in assay [1], the “% inhibition for cancer cells HepG2” value was 87.91%. Moreover, the “% inhibition for cancer cells LNCaP” value in [2] was 34.74%. The “% inhibition for cancer cells U87-MG” value in [3] is reported as 48.10%. In [4], the “% inhibition for cancer cells HT1080” value amounted to 62.86%. Moreover, the “% inhibition for cancer cells KYSE410” value in assay [5] stood at 62.50%. Moreover, the “% inhibition for cancer cells MCF-7” value in assay [6] was 94.86%. In assay [7], the “% inhibition for cancer cells A 549” value came to 94.52%.

With `CC(C)Cc1cc(CNC(=O)C2C3CN(Cc4ccccc4)CC32)nn1-c1ccccc1` (centres unmarked) [Compound 2, 3-(3-Benzyl-3-azabicyclo[3.1.0]hexane-6-carboxamido)methyl-5-isobutyl-1-phenyl-1H-pyrazole], in assay [2], the “% inhibition for cancer cells LNCaP” value is 84.90%. Besides, in [3], the “% inhibition for cancer cells U87-MG” value was found to be 86.45%. For the same compound, the “% inhibition for cancer cells HT1080” value in [4] came to 87.79%. In assay [5], the “% inhibition for cancer cells KYSE410” value is on record as 88.75%.

As to `CC(C)Cc1cc(CNC(=O)C2C3CN(CCc4ccc(C(F)(F)F)cc4)CC32)nn1-c1ccccc1` (centres unmarked) [Compound 3, 5-Isobutyl-1-phenyl-3-{3-[4-(trifluoromethyl)phenylethyl]-3-azabicyclo[3.1.0]hexane-6-carboxamido}methyl-1H-pyrazole], the “% inhibition for cancer cells HepG2” value in assay [1] is given as 67.82%. Further, the “% inhibition for cancer cells LNCaP” value in assay [2] turned out to be 92.29%. Besides, the “% inhibition for cancer cells U87-MG” value in [3] was found to be 89.21%. In addition, the inhibition at 10 µM in assay [8] amounted to 64.6%; in [9], 60.5%. Besides, the “% inhibition for cancer cells HT1080” value in assay [4] amounted to 87.64%. The “% inhibition for cancer cells KYSE410” value in assay [5] was found to be 92.33%. The “% inhibition for cancer cells MCF-7” value in [6] is on record as 85.44%. Also, the “% inhibition for cancer cells A 549” value in [7] was found to be 75.64%.

As for `CC(C)Cc1cc(CNC(=O)C2C3CN(C(=O)c4ccccc4)CC32)nn1-c1ccccc1` (centres unmarked) [Compound 4, 3-(3-Benzoyl-3-azabicyclo[3.1.0]hexane-6-carboxamido)methyl-5-isobutyl-1-phenyl-1H-pyrazole], the “% inhibition for cancer cells HepG2” value in [1] worked out at 89.44%. For the same compound, in assay [2], the “% inhibition for cancer cells LNCaP” value is given as 73.31%. Moreover, the “% inhibition for cancer cells U87-MG” value in assay [3] was 56.49%. For the same compound, the “% inhibition for cancer cells HT1080” value in [4] was found to be 75.39%. Besides, the “% inhibition for cancer cells KYSE410” value in assay [5] is recorded as 56.84%. Besides, in [6], the “% inhibition for cancer cells MCF-7” value worked out at 95.00%. Besides, in [7], the “% inhibition for cancer cells A 549” value is recorded as 94.52%.

For the compound `CC(C)Cc1cc(CNC(=O)C2C3CN(C(=O)Cc4ccccc4)CC32)nn1-c1ccccc1` (centres unmarked) [Compound 5, 5-Isobutyl-1-phenyl-3-[3-(2-phenylacetyl)-3-azabicyclo[3.1.0]hexane-6-carboxamido]methyl-1H-pyrazole], the “% inhibition for cancer cells HepG2” value in [1] turned out to be 89.16%. In addition, the “% inhibition for cancer cells LNCaP” value in assay [2] turned out to be 62.24%. Further, in [3], the “% inhibition for cancer cells U87-MG” value was 45.39%. Further, the inhibition at 10 µM in [8] was 89.9%; in [9], 81%. In assay [4], the “% inhibition for cancer cells HT1080” value was 67.10%. Besides, the “% inhibition for cancer cells KYSE410” value in [5] was 48.62%. Moreover, in assay [6], the “% inhibition for cancer cells MCF-7” value is reported as 95.24%. Besides, the “% inhibition for cancer cells A 549” value in assay [7] turned out to be 94.61%.

As to `CC(C)Cc1cc(C(=O)NCC2C3CN(CCC(C)(C)C)CC23)nn1-c1ccccc1` (centres unmarked) [Compound 7, 3-{2-[3-(3,3-Dimethylbutyl)-3-azabicyclo[3.1.0]hexane-6-yl]methyl}carbamoyl-5-isobutyl-1-phenyl-1H-pyrazole], in assay [1], the “% inhibition for cancer cells HepG2” value was determined as 98.18%. Also, in assay [2], the “% inhibition for cancer cells LNCaP” value is 49.98%. In assay [3], the “% inhibition for cancer cells U87-MG” value is listed as 89.43%. Besides, the “% inhibition for cancer cells HT1080” value in assay [4] worked out at 88.79%. In addition, in [5], the “% inhibition for cancer cells KYSE410” value amounted to 86.46%. In addition, the “% inhibition for cancer cells MCF-7” value in assay [6] is listed as 94.67%. Moreover, in assay [7], the “% inhibition for cancer cells A 549” value was determined as 93.14%.

As for `Cc1ccc(NC(=O)c2ccc(CN3CCN(C)CC3)cc2)cc1Nc1nccc(-c2cccnc2)n1` [Gleevec, reference compound], in assay [1], the “% inhibition for cancer cells HepG2” value is 90.81%. In addition, the “% inhibition for cancer cells LNCaP” value in assay [2] is 82.56%. Moreover, the “% inhibition for cancer cells U87-MG” value in assay [3] amounted to 86.51%. The “% inhibition for cancer cells HT1080” value in assay [4] is given as 92.04%. The “% inhibition for cancer cells KYSE410” value in assay [5] was found to be 75.92%. Also, the “% inhibition for cancer cells MCF-7” value in assay [6] was determined as 95.19%. In addition, the “% inhibition for cancer cells A 549” value in assay [7] is recorded as 94.17%.

Turning to `C#Cc1cccc(Nc2ncnc3cc(OCCOC)c(OCCOC)cc23)c1` [Tarceva, reference compound], in assay [2], the “% inhibition for cancer cells LNCaP” value amounted to 47.12%. Also, the “% inhibition for cancer cells U87-MG” value in assay [3] is 55.96%. Besides, in [4], the “% inhibition for cancer cells HT1080” value was 83.07%. Further, in [5], the “% inhibition for cancer cells KYSE410” value stood at 36.30%.

As to `CCC1(C)CC(=O)NC1=O` (centres unmarked) [ethosuximide], the “effect on mechanically and thermally induced pain” value in assay [10] is “inhibit mechanically and thermally induced pain in a dose-dependent manner”.

Regarding `COCC(=O)O[C@]1(CCN(C)CCCc2nc3ccccc3[nH]2)CCc2cc(F)ccc2[C@@H]1C(C)C` [mibefradil], the “effect on mechanically and thermally induced pain” value in [10] was “inhibit mechanically and thermally induced pain in a dose-dependent manner”.
